According to ChEMBL document CHEMBL1139772, “Synthesis and SAR studies of novel antifungal 1,2,3-triazines” (Bioorg Med Chem Lett, 2007):
Values after ≈ are worked out from the molar mass of the structure shown.

What was measured:
[1] = system: Blumeria graminis f. sp. tritici; test: Antifungal activity against Erysiphe graminis f. sp. tritici at […] relative to control; format: functional
[2] = Partition coefficient, log P by chromatographic hydrophobicity method; format: physicochemical; conditions: octanol/water
[3] = Aqueous solubility at pH 7.0; format: physicochemical
[4] = Partition coefficient, log P of the compound; format: physicochemical; conditions: octanol/water

| Structure (SMILES) | Activity [1] [%] | logP [2] | solubility [3] [µg/mL] | logP [4] |
| --- | --- | --- | --- | --- |
| COCCNc1nc2sc3c(OC)nnnc3c2c2c1CCCC2 | 33 | 3.9 | 0.14 (≈ 0.405 µM) |  |
| CC(C)CCOc1nnnc2c1sc1nc(N3CCOCC3)c3c(c12)CCCC3 | 0 |  |  |  |
| COc1nnnc2c1sc1nc(N(C)Cc3ccccc3)c3c(c12)CCCC3 | 100 |  |  |  |
| CCN(CC)c1nc2sc3c(OC)nnnc3c2c2c1CCCC2 | 100 | 5.32 | 0.08 (≈ 0.233 µM) |  |
| COCCNc1nnnc2c1sc1nc(N3CCOCC3)c3c(c12)CCCC3 | 0 |  |  |  |
| Clc1nnnc2c1sc1nc(N3CCOCC3)c3c(c12)CCCC3 | 0 |  |  |  |
| CCCOc1nc2sc3c(OC)nnnc3c2c2c1CCCC2 | 100 |  |  |  |
| CCCCNc1nnnc2c1sc1nc(N3CCOCC3)c3c(c12)CCCC3 | 0 |  |  |  |
| C1CCc2c(c(N3CCOCC3)nc3sc4c(N5CCOCC5)nnnc4c23)C1 | 0 |  |  |  |
| CSc1nnnc2c1sc1nc(N3CCOCC3)c3c(c12)CCCC3 | 100 |  |  |  |
| CCN(CC)c1nnnc2c1sc1nc(N3CCOCC3)c3c(c12)CCCC3 | 0 |  |  |  |
| c1coc(COc2nnnc3c2sc2nc(N4CCOCC4)c4c(c23)CCCC4)c1 | 0 |  |  |  |
| CCOc1nnnc2c1sc1nc(N3CCOCC3)c3c(c12)CCCC3 | 100 |  |  |  |
| CCCOc1nnnc2c1sc1nc(N3CCOCC3)c3c(c12)CCCC3 | 94 |  |  |  |
| CCCCN(C)c1nc2sc3c(OC)nnnc3c2c2c1CCCC2 | 83 |  |  |  |
| COCCN(CCOC)c1nc2sc3c(OC)nnnc3c2c2c1CCCC2 | 67 | 4.09 | 0.79 (≈ 1.96 µM) |  |

| Structure (SMILES) | Activity [1] [%] | logP [2] | solubility [3] [µg/mL] | logP [4] |
| --- | --- | --- | --- | --- |
| CC(Cc1ccc(C(C)(C)C)cc1)CN1C[C@@H](C)O[C@@H](C)C1 (stereo partly specified) [FENPROPIMORPH] | 97 |  |  |  |
| COc1nnnc2c1sc1nc(N3CCCC3)c3c(c12)CCCC3 | 92 |  |  |  |
| COCCOc1nnnc2c1sc1nc(N3CCOCC3)c3c(c12)CCCC3 | 100 | 3.82 | 0.21 (≈ 0.523 µM) |  |
| CC(C)Oc1nnnc2c1sc1nc(N3CCOCC3)c3c(c12)CCCC3 | 0 |  |  |  |
| COCCN(C)c1nc2sc3c(OC)nnnc3c2c2c1CCCC2 | 100 | 4.31 | 0.32 (≈ 0.89 µM) |  |
| COc1nnnc2c1sc1nc(OS(=O)(=O)C(F)(F)F)c3c(c12)CCCC3 | 40 |  |  |  |
| COc1nnnc2c1sc1nc(O)c3c(c12)CCCC3 | 0 |  |  |  |
| c1ccc(CSc2nnnc3c2sc2nc(N4CCOCC4)c4c(c23)CCCC4)cc1 | 0 |  |  |  |
| COCCOc1nnnc2c1sc1nc(N(C)CCOC)c3c(c12)CCCC3 | 100 | 4.12 | 0.48 (≈ 1.19 µM) |  |
| Sc1nnnc2c1sc1nc(N3CCOCC3)c3c(c12)CCCC3 | 0 |  |  |  |
| CCSc1nnnc2c1sc1nc(N3CCOCC3)c3c(c12)CCCC3 | 100 |  |  |  |
| NNc1nnnc2c1sc1nc(N3CCOCC3)c3c(c12)CCCC3 | 0 |  |  |  |
| COc1nnnc2c1sc1nc(N3CCOCC3)c3c(c12)CCCC3 | 100 | 4.06 | 0.08 (≈ 0.224 µM) | 4.25 |
| c1ccc(NNc2nnnc3c2sc2nc(N4CCOCC4)c4c(c23)CCCC4)cc1 | 0 |  |  |  |
| C1CCc2c(c(N3CCOCC3)nc3sc4c(OC5CCCC5)nnnc4c23)C1 | 0 |  |  |  |
